Laboratory results from patent US9114126B2, “Na/K-ATPase ligands, ouabain antagonists, assays and uses thereof” (The University of Toledo, priority 2009, dated 2015).
“Also recorded” adds a separate entry of the source.

How the values were obtained:
purified Na/K-ATPase [1] = target: T1, purified Na/K-ATPase (Sus scrofa (Pig), UniProt P05024); assay: Na/K-ATPase activity, 96-well high throughput screen assay (released phosphate, BIOMOL GREEN); assay type: biochemical; conditions: for effect of changes in K+ concentration on compound-induced inhibition of Na/K-ATPase: data not shown
Description: The purified Na/K-ATPase was prepared from pig kidney. The specific activities of Na/K-ATPase of various kidney preparations were in the range of 900-1,200 μmol/mg/h, which were greater than 95% of the total ATPase activity. The high throughput screen is conducted in a 96-well format with the final reaction volume of 100 μl containing the following components: 100 mM NaCl, 20 mM KCl, 1 mM MgCl2, 1 mM EGTA, 20 mM Tris-HCl (pH 7.4) and 0.2 μg of purified Na/K-ATPase. After compounds were added, mixtures were incubated for 15 min at 37° C. for 15 min and reaction was initiated by adding 2 mM ATP.Mg mixture.
Reactions were carried out for 15 min and then stopped by the addition of 100 μl ice-cold trichloroacetic acid. Reaction mixtures were cleared by centrifugation, and assayed for released phosphate using the BIOMOL GREEN™ Reagent according to the manufacturer's instructions. In addition, the control Na/K-ATPase activity was measured in the presence and absence of 1 mM ouabain, and taken as 100%. Furthermore, 5 μM ouabain and 0.1% of DMSO were included in each plate as a positive and a vehicle control, respectively.

ERKs in LLC-PK1 cells = assay: p-ERK immunostaining in LLC-PK1 cells; assay type: cell-based, pig; conditions: for cellular ERK activity (active ERKs by immunostaining): LLC-PK1, 10 min, 100 nM ouabain, MB7 from 100 nM to 10 μM
Description: FIG. 4B: LLC-PK1 cells were treated with MB7 or ouabain for 10 minutes and were immunostained with the ERK/MAPK (Phospho-Thr202/Tyr204) Phosphorylation/Translocation Cell-Based Assay Kit according to the manufacturer's instructions. The images were collected as described under “Experimental Procedures.” The scale bar represents […]. Images from a representative experiment are shown. The quantitative data of p-ERK were collected from 40 different fields in three independent experiments and expressed as mean±S.E. *, p<0.05 versus control.
(§1) LLC-PK1 cells grown on coverslips were serum starved for 24 h and treated with MB7 or ouabain for different times Immunostaining of p-ERK was performed using the commercial available ERK/MAPK (Phospho-Thr202/Tyr204) Phosphorylation/Translocation Cell-Based Assay Kit according to the manufacturer's instructions. The signals were detected by a Leica confocal microscope. Leica confocal software was used for data analysis.
as §1, with “MB5” for “MB7”

Na/K-ATPase/Src complex = Na/K-ATPase/Src complex (Sus scrofa (Pig), UniProt P05024); assay: Activation of receptor Na/K-ATPase/Src complex (pY418 Western blot); assay type: biochemical; conditions: reconstituted complex in test tube; ouabain 10 μM, MB7 1 and 10 μM
Description: FIG. 3: Effects of MB7 and ouabain on receptor Na/K-ATPase/Src complex. The purified Na/K-ATPase (2 μg) and purified Src were incubated in the presence of either 10 μM ouabain or 1 and 10 μM MB7 for 15 min and assayed for Src activation as described in “Experimental Procedures”. Values are mean SE of at least three independent experiments. **p<0.01 compared with control.
The activity of receptor Na/K-ATPase/Src complex was assayed. Briefly, the purified Src (4.5 U) was incubated with 2 μg of the purified Na/K-ATPase in phosphate-buffered saline (PBS) for 30 min at 37° C. Afterward, the Na/K-ATPase/Src complex was exposed to ouabain or MB7 for 10 min. Reaction was initiated by addition of 2 mM ATP/Mg^2+, continued for 5 min at 37° C. and was stopped by addition of SDS sample buffer. The activation of Src was measured by Western blot using anti-pY418 antibody. Total Src was also probed for loading control.

Src in A549 cells = assay: Src activation in A549 cells (Western blot); assay type: cell-based, human; conditions: 10 min; 100 nM ouabain, MB7 up to 10 μM
Description: FIG. 4A: Effects of MB7 and ouabain on Src and ERKs. A549 cells were treated with ouabain or MB7 for 10 min and cell lysates (50 μg/lane) were separated by SDS-PAGE and analyzed for Src activation as in FIG. 3. The values are mean±S.E. from four separate experiments. *, p<0.05 versus control.
The pig kidney epithelia cells (LLC-PK1 cells) and human lung cancer cells (A549 cells) were obtained from ATCC and maintained in Dulbecco's modified Eagle's medium (DMEM) in the presence of 10% FBS, 100 units/ml penicillin, and 100 μg/ml streptomycin in a 5% CO2 humidified incubator. To eliminate the confounding effect of growth factors in the serum, cells were serum starved for 24 h before experiments unless otherwise indicated.
Cells were washed with PBS and solubilized in ice-cold RIPA buffer containing 1% Nonidet P-40, 1% sodium deoxycholate, 150 mM NaCl, 1 mM EDTA, 1 mM phenylmethylsulfonyl fluoride, 1 mM sodium orthovanadate, 1 mM NaF, 10 μg/ml aprotinin, 10 μg/ml leupeptin, and 50 mM Tris-HCl (pH 7.4) as previously described (13). Cell lysates were then cleared by centrifugation at 14,000 rpm, and supernatants were used for protein assay and subjected to Western blot analysis. Samples were separated on SDS-PAGE (50 μg/lane) and transferred to a cellulose membrane. […] Protein signals were detected using an ECL kit and quantified using a Bio-Rad GS-670 imaging densitometer.

Na-ATPase = Na-ATPase (Sus scrofa (Pig), UniProt P05024); assay: Na-ATPase activity inhibition; assay type: biochemical
Description: In the experiments depicted in FIG. 1A, the dose-response curves of MB7 were compared with ouabain. […] Furthermore, 10 μM MB7 produced 58±6% inhibition of Na-ATPase as did on Na/K-ATPase.

purified Na/K-ATPase [2] = target: T1, purified Na/K-ATPase; assay: Na/K-ATPase activity assay (Example II), two-phase inhibition; assay type: biochemical
Description: FIGS. 7A-7C: Dose-dependent inhibition of Na/K-ATPase by MB5: FIG. 7A: The two phase inhibition of both low and high affinity.
The purified Na/K-ATPase was prepared from pig kidney. The specific activities of Na/K-ATPase of various kidney preparations were in the range of 900-1,200 μmol/mg/h, which were greater than 95% of the total ATPase activity. The Na/K-ATPase assay was conducted in the following reaction buffer with the final volume of 500 μl: 100 mM NaCl, 20 mM KCl, 1 mM MgCl2, 1 mM EGTA, 20 mM Tris-HCl (pH 7.4) and 1 μg of purified Na/K-ATPase. After compounds were added, mixtures were incubated for 15 min at 37° C. for 15 min and reaction was initiated by adding 2 mM ATP.Mg mixture. Reactions were carried out for 15 min and then stopped by the addition of 300 μl ice-cold trichloroacetic acid. Reaction mixtures were cleared by centrifugation, and assayed for released phosphate using the BIOMOL GREEN™ Reagent according to the manufacturer's instructions.

[3] = system: ouabain-induced ERK activation in LLC-PK1 cells; assay: Ouabain-induced activation of ERKs in LLC-PK1 cells after MB5 pretreatment; assay type: cell-based, pig; conditions: 15 min pretreatment, ouabain 1 nM and 100 nM
Description: FIG. 9B: Effects of MB5 on ouabain-induced activation of ERKs. LLC-PK1 cells were pretreated with different concentrations of MB5 (1 nM, 10 μM) for 15 min, exposed to 1 nM ouabain for 10 min, and assayed for active ERKs as in FIG. 9A. A representative set of images is shown.
FIG. 9C: Effects of MB5 on ouabain-induced activation of ERKs. LLC-PK1 cells were pretreated with different concentrations of MB5 (1 nM, 10 μM) for 15 min, exposed to 100 nM ouabain for 10 min, and assayed for active ERKs as in FIG. 9A. A representative set of images is shown.
FIG. 9D: Effects of MB5 on ouabain-induced activation of ERKs. LLC-PK1 cells were pretreated with different concentrations of MB5 (1 nM, 10 μM) for 15 min, exposed to 1 nM ouabain for 1 hour, and assayed for active ERKs as in FIG. 9A. A representative set of images is shown.
as §1, with “MB5” for “MB7”
Ouabain stimulates protein kinase cascades via a Src-dependent pathway in LLC-PK1 cells. […]

purified Na/K-ATPase [4] = target: T1, purified Na/K-ATPase; assay: 3H-ouabain binding to the purified Na/K-ATPase; conditions: 20 nM 3H ouabain
Description: FIG. 8: Effects of MB5 on ouabain binding to the purified Na/K-ATPase. The purified Na/K-ATPase (2 μg) was incubated with 20 nM ^3H ouabain in the presence of different concentrations of MB5.

[5] = system: EGF or dopamine-induced ERK activation in LLC-PK1 cells; assay: EGF- or dopamine-induced activation of ERKs in LLC-PK1 cells after MB5 pretreatment; assay type: cell-based, pig; conditions: MB5 1 nM, 10 μM, 15 min pretreatment
Description: FIG. 9E: Effects of MB5 on stimuli-induced activation of ERKs. LLC-PK1 cells were pretreated with different concentrations of MB5 (1 nM, 10 μM) for 15 min, exposed to epidermal growth factor (EGF) or Dopamine stimuli for either 10 or 3 min, and assayed for active ERKs as in FIG. 9A. A representative set of images is shown.
as §1, with “MB5” for “MB7”
Ouabain stimulates protein kinase cascades via a Src-dependent pathway in LLC-PK1 cells. To determine whether MB5 can antagonize ouabain-induced signal transduction, treated LLC-PK1 cells were pre-treated with different concentrations of MB5 for 15 min and then exposed to ouabain or other stimuli.

[6] = inhibition of purified pig kidney Na/K-ATPase, Table II, read-out: IC50

COc1ccc2c(=O)c3ccc(OC)c(OC)c3oc2c1 [MB8]
IC50 (purified Na/K-ATPase [1]; [6]): > 100 µM

COc1cc(O)c2c(=O)c3c(OC)c(O)ccc3oc2c1 [2027BA1]
IC50 (purified Na/K-ATPase [1]; [6]): > 100 µM

C[C@@H]1O[C@@H](O[C@H]2C[C@@H](O)[C@]3(CO)[C@H]4[C@H](O)C[C@]5(C)[C@@H](C6=CC(=O)OC6)CC[C@]5(O)[C@@H]4CC[C@]3(O)C2)[C@H](O)[C@H](O)[C@H]1O [ouabain]
cellular ERK activity (active ERKs by immunostaining) (ERKs in LLC-PK1 cells): increased cellular amount of active ERKs
ERK stimulation (ERKs in LLC-PK1 cells; LLC-PK1, ouabain 1 nM and 100 nM, time and concentration-dependent): stimulated ERKs
IC50 (purified Na/K-ATPase [1]): ~5 µM
effect of changes in K+ concentration on compound-induced inhibition of Na/K-ATPase (purified Na/K-ATPase [1]): antagonized
activation of Na/K-ATPase-associated Src (Na/K-ATPase/Src complex): stimulated
Src activation in A549 cells (Src in A549 cells): stimulated Src

O=c1c2ccccc2oc2cc(O)cc(O)c12 [MB1, 1,3-Dihydroxyxanthone]
IC50 (purified Na/K-ATPase [1]; [6]): > 100 µM

COc1ccc2oc3cc(OC)c(OC)c(OC)c3c(=O)c2c1 [C-017]
IC50 (purified Na/K-ATPase [1]; [6]): > 100 µM

O=c1c2ccc(O)c(O)c2oc2c(O)c(O)ccc12 [MB7, 3,4,5,6-Tetrahydroxyxanthone]
cellular ERK activity (active ERKs by immunostaining) (ERKs in LLC-PK1 cells): failed to affect cellular ERK activity
inhibition at 10 µM (Na-ATPase): 58 ± 6%
effect on Na+ and ATP affinities of Na/K-ATPase (purified Na/K-ATPase [1]; MB7 at 10 μM, substrate dependence, FIG. 2A-2B): reduced both Na^+ and ATP affinities
effect of changes in K+ concentration on compound-induced inhibition of Na/K-ATPase (purified Na/K-ATPase [1]): no effect
IC50 (purified Na/K-ATPase [1]; dose-dependent inhibition of Na/K-ATPase, FIG. 1A, read-out: apparent IC50): 5 µM
IC50 (purified Na/K-ATPase [1]; [6]): 5 µM
activation of Na/K-ATPase-associated Src (Na/K-ATPase/Src complex): failed to activate Src
Src activation in A549 cells (Src in A549 cells): failed to do the same

O=c1c2ccc(O)c(O)c2oc2cc(O)cc(O)c12 [MB6, 1,3,5,6-Tetrahydroxyxanthone]
IC50 (purified Na/K-ATPase [1]; [6]): 60 µM

COc1cc(O)c2c(=O)c3c(O)c(OC)ccc3oc2c1 [2027BA2]
IC50 (purified Na/K-ATPase [1]; [6]): > 100 µM

O=c1c2cccc(O)c2oc2cc(O)cc(O)c12 [MB3, 1,3,5-Trihydroxyxanthone]
IC50 (purified Na/K-ATPase [1]; [6]): 65 µM

O=c1c2ccccc2oc2ccccc12 [xanthone, reference compound]
inhibition of Na/K-ATPase activity (purified Na/K-ATPase [1]; dose-response curves): failed to inhibit; also recorded: no detectable inhibition

O=c1c2cccc(O)c2oc2c(O)c(O)ccc12 [MB5, 3,4,5-Trihydroxyxanthone]
inhibition at 50 µM (purified Na/K-ATPase [2]; at about 50 μM, read-out: inhibition by low affinity binding): 100%
inhibition of the ATPase activity by high affinity inhibition (purified Na/K-ATPase [2]; high affinity phase): about 25%
IC50 (purified Na/K-ATPase [2]; high affinity site, sub-nM concentrations): 0.04 nM
effect on ouabain-induced activation of ERKs ([3]; MB5 at 1 nM): significantly reduce
effect on ouabain-induced activation of ERKs ([3]; MB5 at 10 μM): completely blocked
concentration at which significant inhibition of ouabain binding was detected (purified Na/K-ATPase [4]): 0.1 nM
maximal inhibition of ouabain binding (purified Na/K-ATPase [4]; 10 μM MB5): 30%
IC50 (purified Na/K-ATPase [1]; [6]): 10 µM
effect on ERK activation induced by EGF or dopamine [5]: failed to affect ERK activation

O=c1c2ccccc2oc2c(O)c(O)ccc12 [MB2, 3,4-Dihydroxyxanthone]
IC50 (purified Na/K-ATPase [1]; [6]): > 100 µM
